For 20 compounds, inhibition and IC50 results are on record in ChEMBL document CHEMBL1208784, “Refinement of the pharmacophore of 3,4-dihydroquinazoline-2(1H)-thiones for their anti-melanogenesis activity” (Bioorg Med Chem Lett, 2010).

A value given as a limit tells only on which side of the number the result lay.

Experiment [1] deals with B16. The experiment is described as follows: Antimelanogenic activity in mouse B16 cells assessed as inhibition of alpha-MSH-induced melanogenesis at 10 uM. Format: functional.
Experiment [2] deals with B16. The experiment is described as follows: Antimelanogenic activity in mouse B16 cells assessed as inhibition of alpha-MSH-induced melanogenesis. The format is functional, cell-based.
Experiment [3] concerns B16. The experiment is described as follows: Antimelanogenic activity in mouse B16 cells assessed as inhibition of alpha-MSH-induced melanogenesis at 100 uM. The format is functional.
The target of experiment [4] is T1, Tyrosinase (Mus musculus, UniProt P11344).
T1 sequence (P11344 whole entry): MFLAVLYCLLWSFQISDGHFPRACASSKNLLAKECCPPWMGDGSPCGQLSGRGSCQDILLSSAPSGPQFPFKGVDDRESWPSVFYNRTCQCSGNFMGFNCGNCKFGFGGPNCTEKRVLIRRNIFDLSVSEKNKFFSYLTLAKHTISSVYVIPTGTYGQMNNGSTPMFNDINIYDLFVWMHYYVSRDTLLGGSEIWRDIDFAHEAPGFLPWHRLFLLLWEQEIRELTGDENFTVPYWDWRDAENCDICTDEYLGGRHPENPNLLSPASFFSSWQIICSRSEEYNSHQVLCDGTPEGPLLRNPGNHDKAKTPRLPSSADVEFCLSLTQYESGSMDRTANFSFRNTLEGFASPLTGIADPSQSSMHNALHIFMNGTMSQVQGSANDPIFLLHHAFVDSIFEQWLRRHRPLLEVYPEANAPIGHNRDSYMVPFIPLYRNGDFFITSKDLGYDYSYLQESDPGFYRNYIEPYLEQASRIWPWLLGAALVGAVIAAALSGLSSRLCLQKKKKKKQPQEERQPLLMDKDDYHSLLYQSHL
The experiment is described as follows: Inhibition of tyrosinase in alpha-MSH-induced mouse B16 cells. The format is cell-based.

For the compound `Cc1ccc2c(c1)CN(CCC(C)C)C(=S)N2`, the inhibition at 10 µM in experiment [1] is > 100%. Besides, the IC50 in experiment [2] came to 3000 nM. The matching figures for `CCCCCCN1Cc2cc(C)ccc2NC1=S`: > 100% and 1200 nM. In the case of `CCCCCCCN1Cc2cc(C)ccc2NC1=S`, the inhibition at 10 µM in experiment [1] is > 100%. Besides, the IC50 in experiment [2] amounted to 1400 nM.

With `Cc1ccc2c(c1)CN(CC1CCCCC1)C(=S)N2`, the inhibition at 10 µM in experiment [1] is > 100%. The IC50 in experiment [2] came out at 1600 nM. With `S=C1Nc2ccc(Cl)cc2CN1CC1CCCCC1`, in experiment [1], the inhibition at 10 µM is > 100%. The 50% inhibitory concentration (IC50) in experiment [2] worked out at 1200 nM.

For the compound `S=C1NCc2ccccc2N1`, the inhibition at 10 µM in experiment [1] worked out at 36%. The IC50 in experiment [2] came out at 15800 nM. On to `Cc1ccc2c(c1)CN(C(C)C)C(=S)N2C`, for which the inhibition at 10 µM in experiment [1] is 10%. Further, the IC50 in experiment [2] amounted to 19000 nM. On to `Cc1ccc2c(c1)CN(CC(C)C)C(=S)N2C`, for which the inhibition at 10 µM in experiment [1] was 18%. Moreover, the IC50 in experiment [2] amounted to 17800 nM. As to `Cc1ccc2c(c1)CN(C(C)C)C(=O)N2`, the inhibition at 10 µM in experiment [1] stood at 13%. In experiment [2], the IC50 was > 10000 nM. Consider `Cc1ccc2c(c1)CN(CC(C)C)C(=O)N2`, for which, in experiment [1], the inhibition at 10 µM was determined as 11%. The IC50 in experiment [2] was > 10000 nM. `Cc1ccc2c(c1)CN(CCC(C)C)C(=O)N2`: in experiment [1], the inhibition at 10 µM was 15%. In experiment [2], the IC50 is > 10000 nM. As for `CCCCCCN1Cc2cc(C)ccc2NC1=O`, in experiment [1], the inhibition at 10 µM was 12%. Besides, the IC50 in experiment [2] is > 10000 nM.

For the compound `CCCCCCCN1Cc2cc(C)ccc2NC1=O`, in experiment [1], the inhibition at 10 µM amounted to 19%. Also, the IC50 in experiment [2] is > 10000 nM. As for `Cc1ccc2c(c1)CN(CC1CCCCC1)C(=O)N2`, the inhibition at 10 µM in experiment [1] turned out to be 18%. Moreover, in experiment [2], the IC50 is > 10000 nM. For `O=C1Nc2ccc(Cl)cc2CN1CC1CCCCC1`, in experiment [1], the inhibition at 10 µM is 10%. Besides, the IC50 in experiment [2] was > 10000 nM. The matching figures for `O=C1NCc2ccccc2N1`: 11% and > 10000 nM. The matching figures for `Cc1ccc2c(c1)CN(C(C)C)C(=S)N2`: > 100% and 1900 nM.

`Cc1ccc2c(c1)CN(CC(C)C)C(=S)N2`: in experiment [1], the inhibition at 10 µM was > 100%. In addition, the IC50 in experiment [2] was 1900 nM. On to `NC(=O)Nc1ccccc1`, for which, in experiment [3], the inhibition at 100 µM worked out at 0%. `NC(=S)Nc1ccccc1` [PHENYLTHIOUREA]: 1800 nM corresponded to half-maximal inhibition in experiment [4] (IC50).

As a reminder, the inhibition is the drop in the measured response relative to a control, in per cent. In general, IC50 refers to the concentration needed to halve the response being measured.
